What was measured:
[1] = Metabolic stability in rat liver microsomes assessed as half life measured for 60 mins by LC-MS/MS analysis; type: ADME, Microsome
[2] = AUC(0 to t) in Beagle dog at 3.6 mg/kg, po measured for 24 hrs by LC-MS/MS analysis; type: ADME, organism-based, Canis lupus familiaris; conditions: in vivo
[3] = Microsomal metabolic stability in Beagle dog liver microsomes assessed as half life […] by LC-MS/MS analysis; type: ADME, Canis lupus familiaris, Microsome
[4] = Oral bioavailability in Beagle dog at 3.6 mg/kgm measured for 24 hrs by LC-MS/MS analysis; type: ADME, organism-based, Canis lupus familiaris; conditions: in vivo, dose 3.6 mg/kg
[5] = AUC(0 to t) in ICR mouse plasma at 5 mg/kg, po measured for 60 mins by LC-MS/MS analysis; type: ADME, organism-based
[6] = Oral bioavailability in ICR mouse at 5 mg/kg; type: ADME, organism-based; conditions: in vivo
[7] = AUC(0 to t) in Sprague-Dawley rat at 300 mg/kg, po measured up to 24 hrs by LC-MS/MS analysis; type: ADME, organism-based; conditions: in vivo
[8] = Metabolic stability in human liver microsome assessed as half life; conditions: liver microsomes
[9] = Oral bioavailability in human at 2 microg/kg measured for 60 mins by LC-MS/MS analysis; conditions: in vivo, 0.002 mg/kg
[10] = AUC(0 to t) in ICR mouse plasma at 2 microg/kg, po measured for 60 mins by LC-MS/MS analysis; conditions: 0.002 mg/kg
[11] = Acute toxicity in po dosed ICR mouse assessed as lethal dose; type: organism-based; conditions: in vivo
[12] = Oral bioavailability in Sprague-Dawley rat at 20 mg/kg by LC-MS/MS analysis; type: ADME, organism-based; conditions: in vivo
[13] = Toxicity in rat assessed as lethal dose; conditions: in vivo
[14] = Oral bioavailability in Sprague-Dawley rat at 5 mg/kg by LC-MS/MA analysis; type: ADME, organism-based; conditions: in vivo
[15] = AUC(0 to t) in Sprague-Dawley rat at 20 mg/kg, po measured up to 24 hrs by LC-MS/MS analysis; type: ADME, organism-based; conditions: in vivo
[16] = AUC(0 to t) in Sprague-Dawley rat at 5 mg/kg, po measured up to 24 hrs by LC-MS/MS analysis; type: ADME, organism-based; conditions: in vivo
[17] = Toxicity in iv dosed rat assessed as lethal dose; type: organism-based; conditions: in vivo
[18] = Toxicity in ip dosed rat assessed as lethal dose; type: organism-based; conditions: in vivo

Structure (SMILES): Cc1cnc(-c2ccccc2C(C)C)nc1NCc1ccc(-n2ccnn2)cc1
- half-life [1]: 0.2 h

Structure (SMILES): C[C@@H]1C(=O)O[C@H]2[C@@H](O)C34[C@H]5C[C@@H](C(C)(C)C)C36[C@@H](OC(=O)[C@@H]6O)O[C@@]4(C(=O)O5)[C@@]12O (stereo partly drawn)
- AUC(0-t) at 24 h [2]: 356 µg·h/mL
- half-life [3]: 1 h
- bioavailability [4]: 17%

Structure (SMILES): O=C(Nc1c2c(cc3c1CCC3)CCC2)NS(=O)(=O)c1ccc(OCCOCCOCCOCCN2C(=O)/C(=C\c3cc(Br)c(O)c(Br)c3)c3cc(I)ccc32)cc1
- AUC(0-t) at 1 h [5]: 551 µg·h/mL
- bioavailability [6]: 19%

Structure (SMILES): O=C1c2cccc(O)c2C(=O)c2c(O)cc(CO)cc21 [ALOE-EMODIN]
- AUC(0-t) at 24 h [7]: 42.8 µg·h/mL

Structure (SMILES): Cc1cccc([C@H](C)c2cnc[nH]2)c1C [DEXMEDETOMIDINE]
- half-life [8]: 2 h
- bioavailability at 1 h [9]: 15.6%
- AUC(0-t) at 1 h [10]: 0.45 µg·h/mL

Structure (SMILES): COc1cc(/C=C/C(=O)O)ccc1O [FERULATE]
- LD50 [11]: 3200 mg/kg

Structure (SMILES): O=c1c(O)c(-c2ccc(O)cc2)oc2cc(O)cc(O)c12 [KAEMPFEROL]
- bioavailability [12]: 2%
- LD50 [13]: 3810 mg/kg
- bioavailability [14]: 7%
- AUC(0-t) at 24 h [15]: 234 µg·h/mL

Structure (SMILES): O=c1c(-c2ccc(O)cc2)coc2c([C@@H]3O[C@H](CO)[C@@H](O)[C@H](O)[C@H]3O)c(O)ccc12 [PUERARIN]
- AUC(0-t) at 24 h [16]: 109 µg·h/mL
- LD50 [17]: 634 mg/kg
- LD50 [18]: 1410 mg/kg
